# Source: US11859252B2, “Diagnostic and therapeutic methods for cancer” (Genentech, Inc., priority 2017, dated 2024)
# “Also recorded” adds a separate entry of the source.
# What was measured:
# [1] = system: KRAS mutant syngeneic CRC xenograft model CT26; assay: CT26 tumor growth model; format: in vivo; settings: 5 mg/kg each orally once a day, 21 days, vs either agent alone, FIGS. 5F-5G
# [2] = system: pMEK, pERK, pRSK, pAKT; assay: Immunoblot of pathway markers after compound treatment; format: cell-based; settings: A549 and HCT-116; 1 μM HM95573, 250 nM cobimetinib; FIGS. 5D-5E
# Method: Cells lysed in lysis buffer (0.5% NP40, 20 mM Tris, pH 7.5, 137 mM NaCl, 10% glycerol, 1 mM EDTA) plus protease inhibitor mixture-complete mini (Roche Applied Science, 11836170001) and phosphatase inhibitor mix (Thermo, 78426). Lysates were centrifuged at 15,000 rpm for 10 minutes and the protein concentration determined using BCA (Thermo, 23227). Equal amounts of protein were subjected to SDS-PAGE NuPAGE 4-12% Bis-Tris Gel (Novex, WG-1403) and transferred to nitrocellulose membrane (BioRad, 170-4159). After blocking in blocking buffer (Li-Cor, 927-40000), membranes were incubated with the indicated primary antibodies and analyzed either by the addition of secondary antibodies IRDye 680LT Goat anti-Mouse IgG (H+L) (Li-Cor, 926-68050) or IRDye 800CW goat anti-Rabbit IgG (H+L) (Li-Cor, 926-32211). The membranes were visualized on the LiCor Odyssey CLx Scanner.
# [3] = system: 196 lung, colon, skin, and ovarian cancer cell lines; assay: 196 cell line screen, HM95573 and cobimetinib co-dilution; format: cell-based
# Method: Compounds were screened in nine-point dose response using a three-fold dilution. Cells were seeded into 384-well plates 24 hours prior to compound addition. Cells were then incubated with compound for 72 hours or 120 hours before assaying viability (CellTiter-Glo, Promega). Assays were performed in biological triplicate. Cells were incubated (37° C., 5% CO2) in RPMI-1640, 2.5% FBS (72 hour assay) or 5% FBS (120 hour assay), and 2 mM glutamine throughout the assay. The reported IC50 and mean viability metrics are as follows: IC50 is the dose at which the estimated inhibition is 50% relative to untreated wells (i.e., absolute IC50). Mean viability is equivalent to the area under the log-dose/viability curve divided by the total number of tested doses.
# For combination synergy studies, cells were plated in 384-well plates (Corning) and treated with varying concentrations of compound, either alone or in combination for 72 hours. Cell viability was determined using CellTiter-Glo Luminescent Cell Viability Assay (Promega, G7573). Synergistic effects were determined using the Bliss independence analysis methods (Greco et al. Pharmacol. Rev. 47: 331-385, 1995; Chou and Talalay. Adv. Enzyme Regul. 22:27-55, 1984; Chou. Cancer Res. 70: 440-446, 2010; Bliss. Ann. Appl. Biol. 25: 31, 1939).
# [4] = system: HCT116 colon xenograft tumor; assay: HCT116 colon xenograft tumor model
# Method: The formulations were mixed well by vortexing before dosing. Test articles were stored in a refrigerator set to maintain a temperature range of 4° C.-7° C.
# Only animals that appeared to be healthy and that were free of obvious abnormalities were used for each study. Tumor volumes were determined using digital calipers (Fred V. Fowler Company, Inc.) using the formula (L×W×W)/2. […] Mice were weighed twice a week using a standard scale.
# [5] = Plasma and tumor drug concentrations; format: in vivo, mice; settings: combination with GDC-0973, FIG. 3D
# [6] = system: MAPK pathway signaling (pERK, pRSK, DUSP6, SPRY4); assay: Tumor pharmacodynamics in tumor-bearing mice; format: in vivo; settings: combination of LY3009120 and GDC-0973 vs either alone, 4 days of treatment, FIG. 3C
# Method: GEM model tumor samples were collected and stored in RNALater (Qiagen, Valencia, CA). Total RNA was extracted with RNeasy Plus Mini kit (Qiagen) following manufacturer's instructions. RNA quantity was determined using Nanodrop (Thermo Scientific, Waltham, MA).
# Transcriptional readouts were assessed using either a Fluidigm instrument or standard RT-PCR assays according to manufacturer's recommendations. RNA (100 ng) was subjected to cDNA synthesis/pre-amplification reactions using the Applied Biosystems High Capacity cDNA RT Kit and TaqMan PreAmp Master Mix as per the manufacturer's protocol (Life Technologies, Carlsbad, CA). […]
# To prepare protein lysates, cells were washed once with ice-cold PBS and lysed in 1× Cell Extraction Buffer (Invitrogen) supplemented with protease inhibitor tablet (Roche) and phosphatase inhibitors (Sigma). Protein concentration was determined using BCA Protein Assay (Pierce). […] Antigen-antibody interaction was detected with HRP-conjugated goat anti-rabbit and goat anti-mouse antibodies (Jackson ImmunoResearch) using enhanced chemiluminescence detection reagents (Pierce) or with IRDye 800 conjugated, affinity purified anti rabbit IgG (LI-COR Biosciences) and Alexa Fluor 680 goat anti mouse IgG (Life Technologies) secondary antibodies using the Odyssey Infrared Imaging System (LI-COR Biosciences).
# [7] = system: NRAS mutant melanoma cell line; assay: Viability of NRAS mutant melanoma versus BRAF-V600E and wild-type lines; format: cell-based; settings: FIG. 8A
# Method: Compounds were screened in nine-point dose response using a three-fold dilution. Cells were seeded into 384-well plates 24 hours prior to compound addition. Cells were then incubated with compound for 72 hours or 120 hours before assaying viability (CellTiter-Glo, Promega). Assays were performed in biological triplicate. […] Mean viability is equivalent to the area under the log-dose/viability curve divided by the total number of tested doses.
# [8] = system: A549 cells; assay: Clonogenic (colony growth) assay; format: cell-based; settings: 8 days; crystal violet; FIG. 2F, 5E
# Method: Cells were plated in duplicate in 6-well plates at 10,000 cells/well, allowed to attach overnight and treated for 8 days with the indicated compounds. Media with appropriate compounds was replenished every 72 hours. At 8 days cells were rinsed once with PBS, fixed and stained with crystal violet solution (Sigma Aldrich, HT90132) for 20 minutes and washed with water.
Structure (SMILES),"tumor growth inhibition (TGI), combination with cobimetinib [1]","combination activity with cobimetinib on pMEK, pERK, pRSK [2]","association of combination sensitivity with KRAS-G13D ([3]; HM95573 and cobimetinib, colorectal and lung lines, FIG. 6D)","synergy score (positive Bliss excess) with cobimetinib by genotype ([3]; co-dilution with cobimetinib, three days, FIG. 5H)","tumor growth, combination with cobimetinib ([4]; HCT116, LY3009120+GDC-0973, FIG. 3A)","tumor growth, single agent ([4]; HCT116, LY-3009120 25 mg/kg IP QD, cobimetinib 5 mg/kg PO QD, FIG. 3A)","tolerability / body weight ([4]; HCT116 xenograft mice, combination with cobimetinib, FIG. 3B)",drug exposure in combination [5],suppression of DUSP6 and SPRY4 in tumor [6],suppression of pERK and pRSK in tumor ([6]; all time points),"effect on mean viability, NRAS mutant vs BRAF-V600E [7]",synergy with cobimetinib in colony formation [8]
Cc1ccc2c(Nc3cccc(Cl)c3F)nccc2c1NC(=O)c1csc2c(N)ncnc12 [HM95573],improved tumor growth inhibition (TGI) in vivo,combination activity was also observed; also recorded: combination activity is observed,This trend was most evident in colorectal cancer lines,significantly higher synergy scores were observed in RAS mutant cell lines compared to either BRAF-V600 mutants or wild-type; also recorded: greater synergy in RAS mutant cell lines and a subset of RAS/RAF wild-type cell lines relative to BRAF-V600 cell lines,,,,,,,,
CNc1ncc2cc(-c3cc(NC(=O)NCCC(C)(C)C)c(F)cc3C)c(C)nc2n1 [LY3009120],,,,,capable of effectively regressing the tumors,modestly inhibited tumor growth,"well tolerated in the mice, resulting in little or minimal changes in body weight post-treatment",not due to increased drug exposure,"deeper suppression of downstream MAPK target genes, DUSP6 and SPRY4",better suppression of pERK and pRSK,approximately equivalent effects on mean viability,marked synergy
